Laboratory results: patent US20260274856A1, “COVALENT CEREBLON LIGANDS” (C4 THERAPEUTICS, INC., priority 2023, published 2026)
Read-outs that look alike come from different tables or passages of the source.

Target: mutant BRAF V600E (Homo sapiens, UniProt P15056, V600E)
Assay: BRAF V600E HiBiT Degradation Assay in A375.10 cells
Settings: for HiBIT-Degradation A375.10 BRAF 24 hours IP nM / HiBIT-Degradation A375.10 BRAF 2 hours IP nM: inflection point of the dose-response curve
[1] = read-out: HiBIT-Degradation A375.10 BRAF 24 hours DC50 nM, 24 hours, A375.10 cells
[2] = read-out: HiBIT-Degradation A375.10 BRAF 24 hours Emax
[3] = read-out: HIBIT-Degradation A375.10 BRAF 2 hours DC50 nM, 2 hours, A375.10 cells
[4] = read-out: HiBIT-Degradation A375.10 BRAF 2 hours Emax

Chain of mutant BRAF V600E (P15056 whole entry V600E): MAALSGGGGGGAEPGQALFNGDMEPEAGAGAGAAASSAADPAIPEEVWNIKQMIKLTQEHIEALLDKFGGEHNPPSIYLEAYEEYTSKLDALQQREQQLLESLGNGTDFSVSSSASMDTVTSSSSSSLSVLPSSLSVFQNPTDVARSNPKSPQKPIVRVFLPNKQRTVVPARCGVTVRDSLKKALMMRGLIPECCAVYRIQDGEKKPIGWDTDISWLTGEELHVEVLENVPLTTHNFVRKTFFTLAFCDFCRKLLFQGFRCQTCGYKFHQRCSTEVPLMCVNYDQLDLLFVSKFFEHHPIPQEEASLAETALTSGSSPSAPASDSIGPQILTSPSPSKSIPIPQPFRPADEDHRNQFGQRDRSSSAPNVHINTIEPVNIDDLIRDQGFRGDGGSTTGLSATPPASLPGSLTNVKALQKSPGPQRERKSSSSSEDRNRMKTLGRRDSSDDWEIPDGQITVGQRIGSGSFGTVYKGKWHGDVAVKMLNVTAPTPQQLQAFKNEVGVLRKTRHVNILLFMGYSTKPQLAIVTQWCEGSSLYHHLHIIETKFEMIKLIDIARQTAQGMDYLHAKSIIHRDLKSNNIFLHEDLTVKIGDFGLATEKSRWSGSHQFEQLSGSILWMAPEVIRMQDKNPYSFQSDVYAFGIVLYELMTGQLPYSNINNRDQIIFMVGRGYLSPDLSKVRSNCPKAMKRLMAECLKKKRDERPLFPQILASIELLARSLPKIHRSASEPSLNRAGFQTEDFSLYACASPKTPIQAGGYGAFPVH
Experimental: Compounds of this invention were tested for degradation of mutant BRAF V600E using the HiBiT assay, a luminescence-based assay for quantification of cellular protein levels using the Nano-Glo@HiBiT Lytic Detection System (Catalog No. N3050, Promega, Madison, WI USA). This assay utilizes the HiBiT tag on a protein of interest, which creates a luminescent signal in the presence of a complementing peptide and its substrate, the quantification of which 10 is proportional to the amount of HiBiT-tagged protein in the cell.
A375 cells were engineered to express HiBiT tagged BRAF V600E by CRISPR knock-in of the HiBiT tag to the endogenous BRAF V600E locus, followed by selection of a clonal population containing 15 the appropriate knock-in (referred to here as cell line A375.10). […] Cell culture flasks and 384-well microplates 20 were acquired from VWR (Radnor, PA, USA).
Plates were then spun briefly, and cells were incubated with compound at 37° C. for 2 hoursor 24 hours.
Following the appropriate treatment time, Nano-Glo® HiBiT Lytic Assay reagents were added to the cells per the manufacturer's instructions by adding 30ul of reagent per well, and 10 the luminescence signal was acquired by plate reader. Cells treated with DMSO only (no test compound treatment) were used as the negative control (N). Media only (no cells added) with Nano-Glo reagent addition was used as the background or positive control (P). The percent response of compound treated samples were calculated by subtracting out the background signal (P) and normalizing to the DMSO control (N) as follows. % Response=100 x (Treated Signal - Average (P))/(Average (N) - Average (P)).
Data were analyzed with a 4-parameter logistic fit to generate sigmoidal dose-response curves. […] The Emax, or maximum effect of each compound, represents the amount of residual protein remaining in the cell following compound treatment.
The experiment was conducted at least once for each compound. If the experiment was conducted multiple times, the data shown in the table is the average of the two or more experiments.

| Compound | HiBIT-Degradation A375.10 BRAF 24 hours IP nM (24 hours, A375.10 cells) | DC50 [1] [nM] | Emax [2] [%] | HiBIT-Degradation A375.10 BRAF 2 hours IP nM (2 hours, A375.10 cells) | DC50 [3] [nM] | Emax [4] [%] | HiBIT-Degradation A375.10 BRAF 2 hours Emax (2 hours, A375.10 cells, residual protein remaining) |
| --- | --- | --- | --- | --- | --- | --- | --- |
| CCN(C)S(=O)(=O)Nc1ccc(F)c(Oc2ccc3ncn([C@@H]4COC5(CCN(C(=O)CN6CCC(c7ccc(C8CCC(=O)NC8=O)cc7OS(=O)(=O)F)CC6)CC5)C4)c(=O)c3c2)c1C#N (some centres unmarked) [drawing 1210] | *** (<= 1 μM is ***) | < 1000 | < 60 |  |  |  |  |
| CCN(C)S(=O)(=O)Nc1ccc(F)c(Oc2ccc3ncn([C@@H]4COC5(CCN(C(=O)CN6CCC(c7ccc(OC8CCC(=O)NC8=O)cc7S(=O)(=O)F)CC6)CC5)C4)c(=O)c3c2)c1C#N (some centres unmarked) [drawing 1198] |  |  |  | *** (<= 1 μM is) | 1000 to 10000 | 60 to 95 |  |
| CCN(C)S(=O)(=O)Nc1ccc(F)c(Oc2ccc3ncn([C@@H]4COC5(CCN(C(=O)CN6CCC(c7ccc(NC8CCC(=O)NC8=O)cc7S(=O)(=O)F)CC6)CC5)C4)c(=O)c3c2)c1C#N (some centres unmarked) [drawing 1222] | *** (<= 1 μM is ***) | 1000 to 10000 | < 60 |  |  |  |  |
| CCN(C)S(=O)(=O)Nc1ccc(F)c(Oc2ccc3ncn([C@H]4COC5(CCN(C(=O)CN6CCC(c7ccc(C8CCC(=O)NC8=O)cc7OS(=O)(=O)F)CC6)CC5)C4)c(=O)c3c2)c1C#N (some centres unmarked) [drawing 1216] | *** (<= 1 μM is ***) | < 1000 |  |  |  |  |  |
| CCN(C)S(=O)(=O)Nc1ccc(F)c(Oc2ccc3ncn([C@@H]4COC5(CCN(C(=O)CN6CCN(c7ccc(N8CCC(=O)NC8=O)cc7OS(=O)(=O)F)CC6)CC5)C4)c(=O)c3c2)c1C#N [drawing 1195] |  |  |  | * (>=10 μM is *) | > 10000 | 60 to 95 |  |
| CCN(C)S(=O)(=O)Nc1ccc(F)c(Oc2ccc3ncn([C@H]4COC5(CCN(C(=O)CN6CCN(c7ccc(C8CCC(=O)NC8=O)cc7OS(=O)(=O)F)CC6)CC5)C4)c(=O)c3c2)c1C#N (some centres unmarked) [drawing 1212] | *** (<= 1 μM is ***) | < 1000 | < 60 |  |  |  |  |
| CCN(C)S(=O)(=O)Nc1ccc(F)c(Oc2ccc3ncn([C@H]4COC5(CCN(C(=O)CN6CCC(c7ccc(N8CCC(=O)NC8=O)cc7OS(=O)(=O)F)CC6)CC5)C4)c(=O)c3c2)c1C#N [drawing 1218] | *** (<= 1 μM is ***) | > 10000 | 60 to 95 |  |  |  |  |
| CCN(C)S(=O)(=O)Nc1ccc(F)c(Oc2ccc3ncn([C@H]4COC5(CCN(C(=O)CN6CCC(c7ccc(OC8CCC(=O)NC8=O)cc7OS(=O)(=O)F)CC6)CC5)C4)c(=O)c3c2)c1C#N (some centres unmarked) [drawing 1214] | *** (<= 1 μM is ***) | < 1000 | < 60 |  |  |  |  |
| CCN(C)S(=O)(=O)Nc1ccc(F)c(Oc2ccc3ncn([C@H]4COC5(CCN(C(=O)CN6CCC(c7ccc(C8CCC(=O)NC8=O)cc7OS(=O)(=O)F)CC6)CC5)C4)c(=O)c3c2)c1C#N (some centres unmarked) [drawing 1211] | *** (<= 1 μM is ***) | < 1000 | < 60 |  |  |  |  |
| CCN(C)S(=O)(=O)Nc1ccc(F)c(Oc2ccc3ncn([C@@H]4COC5(CCN(C(=O)CN6CCC(c7ccc(NC8CCC(=O)NC8=O)cc7S(=O)(=O)F)CC6)CC5)C4)c(=O)c3c2)c1C#N (some centres unmarked) [drawing 1209] |  |  |  | * (>=10 μM is *) | > 10000 | 60 to 95 |  |
| CCN(C)S(=O)(=O)Nc1ccc(F)c(Oc2ccc3ncn([C@H]4COC5(CCN(C(=O)CN6CCN(c7ccc(C8CCC(=O)NC8=O)cc7OS(=O)(=O)F)CC6)CC5)C4)c(=O)c3c2)c1C#N (some centres unmarked) [drawing 1199] |  |  |  | *** (<= 1 μM is) | > 10000 |  | *** (<= 60% is) |
| CCN(C)S(=O)(=O)Nc1ccc(F)c(Oc2ccc3ncn([C@H]4COC5(CCN(C(=O)CN6CCC(c7ccc(N8CCC(=O)NC8=O)cc7OS(=O)(=O)F)CC6)CC5)C4)c(=O)c3c2)c1C#N [drawing 1193] |  |  |  | * (>=10 μM is *) | > 10000 | > 95 |  |
| CCN(C)S(=O)(=O)Nc1ccc(F)c(Oc2ccc3ncn([C@@H]4COC5(CCN(C(=O)CN6CCC(c7ccc(C8CCC(=O)NC8=O)cc7OS(C)(=O)=O)CC6)CC5)C4)c(=O)c3c2)c1C#N (some centres unmarked) [drawing 1223] | *** (<= 1 μM is ***) | < 1000 | < 60 |  |  |  |  |
| CCN(C)S(=O)(=O)Nc1ccc(F)c(Oc2ccc3ncn([C@@H]4COC5(CCN(C(=O)CN6CCC(c7ccc(NC8CCC(=O)NC8=O)cc7OS(C)(=O)=O)CC6)CC5)C4)c(=O)c3c2)c1C#N (some centres unmarked) [drawing 1208] |  |  |  | ** (<10 μM and >1 μM is **) | > 10000 | 60 to 95 |  |
| CCN(C)S(=O)(=O)Nc1ccc(F)c(Oc2ccc3ncn([C@H]4COC5(CCN(C(=O)CN6CCC(c7ccc(OC8CCC(=O)NC8=O)cc7OS(=O)(=O)F)CC6)CC5)C4)c(=O)c3c2)c1C#N (some centres unmarked) [drawing 1196] |  |  |  | *** (<= 1 μM is) | 1000 to 10000 | < 60 |  |
| CCN(C)S(=O)(=O)Nc1ccc(F)c(Oc2ccc3ncn([C@@H]4COC5(CCN(C(=O)CN6CCC(c7ccc(OC8CCC(=O)NC8=O)cc7OS(=O)(=O)F)CC6)CC5)C4)c(=O)c3c2)c1C#N (some centres unmarked) [drawing 1228] | ** (<10 μM and >1 μM is **) | 1000 to 10000 | < 60 |  |  |  |  |
| CCN(C)S(=O)(=O)Nc1ccc(F)c(Oc2ccc3ncn([C@H]4COC5(CCN(C(=O)CN6CCC(c7ccc(N8CCC(=O)NC8=O)cc7OS(C)(=O)=O)CC6)CC5)C4)c(=O)c3c2)c1C#N [drawing 1205] |  |  |  | ** (<10 μM and >1 μM is **) | 1000 to 10000 | < 60 |  |
| CCN(C)S(=O)(=O)Nc1ccc(F)c(Oc2ccc3ncn([C@H]4COC5(CCN(C(=O)CN6CCC(c7ccc(OC8CCC(=O)NC8=O)cc7S(=O)(=O)F)CC6)CC5)C4)c(=O)c3c2)c1C#N (some centres unmarked) [drawing 1200] |  |  |  | *** (<= 1 μM is) | 1000 to 10000 | 60 to 95 |  |
| CCN(C)S(=O)(=O)Nc1ccc(F)c(Oc2ccc3ncn([C@H]4COC5(CCN(C(=O)CN6CCC(c7ccc(NC8CCC(=O)NC8=O)cc7S(=O)(=O)F)CC6)CC5)C4)c(=O)c3c2)c1C#N (some centres unmarked) [drawing 1197] |  |  |  | *** (<= 1 μM is) | > 10000 | 60 to 95 |  |
| CCN(C)S(=O)(=O)Nc1ccc(F)c(Oc2ccc3ncn([C@@H]4COC5(CCN(C(=O)CN6CCC(c7ccc(NC8CCC(=O)NC8=O)cc7OS(C)(=O)=O)CC6)CC5)C4)c(=O)c3c2)c1C#N (some centres unmarked) [drawing 1226] | ** (<10 μM and >1 μM is **) | 1000 to 10000 | < 60 |  |  |  |  |
| CCN(C)S(=O)(=O)Nc1ccc(F)c(Oc2ccc3ncn([C@H]4COC5(CCN(C(=O)CN6CCC(c7ccc(OC8CCC(=O)NC8=O)cc7OS(C)(=O)=O)CC6)CC5)C4)c(=O)c3c2)c1C#N (some centres unmarked) [drawing 1224] | *** (<= 1 μM is ***) | 1000 to 10000 | < 60 |  |  |  |  |
| CCN(C)S(=O)(=O)Nc1ccc(F)c(Oc2ccc3ncn([C@H]4COC5(CCN(C(=O)CN6CCC(c7ccc(C8CCC(=O)NC8=O)cc7OS(=O)(=O)F)CC6)CC5)C4)c(=O)c3c2)c1C#N (some centres unmarked) [drawing 1190] |  |  |  | *** (<= 1 μM is) | < 1000 | < 60 |  |
| CCN(C)S(=O)(=O)Nc1ccc(F)c(Oc2ccc3ncn([C@H]4COC5(CCN(C(=O)CN6CCC(c7ccc(NC8CCC(=O)NC8=O)cc7S(=O)(=O)F)CC6)CC5)C4)c(=O)c3c2)c1C#N (some centres unmarked) [drawing 1215] | *** (<= 1 μM is ***) | < 1000 | < 60 |  |  |  |  |
| CCN(C)S(=O)(=O)Nc1ccc(F)c(Oc2ccc3ncn([C@@H]4COC5(CCN(C(=O)CN6CCC(c7ccc(OC8CCC(=O)NC8=O)cc7OS(C)(=O)=O)CC6)CC5)C4)c(=O)c3c2)c1C#N (some centres unmarked) [drawing 1230] | ** (<10 μM and >1 μM is **) | > 10000 | < 60 |  |  |  |  |
| CCN(C)S(=O)(=O)Nc1ccc(F)c(Oc2ccc3ncn([C@H]4COC5(CCN(C(=O)CN6CCC(c7ccc(NC8CCC(=O)NC8=O)cc7OS(C)(=O)=O)CC6)CC5)C4)c(=O)c3c2)c1C#N (some centres unmarked) [drawing 1202] |  |  |  | *** (<= 1 μM is) | 1000 to 10000 | < 60 |  |
| CCN(C)S(=O)(=O)Nc1ccc(F)c(Oc2ccc3ncn([C@@H]4COC5(CCN(C(=O)CN6CCC(c7ccc(C8CCC(=O)NC8=O)cc7OS(C)(=O)=O)CC6)CC5)C4)c(=O)c3c2)c1C#N (some centres unmarked) [drawing 1207] |  |  |  | ** (<10 μM and >1 μM is **) | > 10000 | < 60 |  |
| CCN(C)S(=O)(=O)Nc1ccc(F)c(Oc2ccc3ncn([C@H]4COC5(CCN(C(=O)CN6CCC(c7ccc(OC8CCC(=O)NC8=O)cc7OS(C)(=O)=O)CC6)CC5)C4)c(=O)c3c2)c1C#N (some centres unmarked) [drawing 1204] |  |  |  | *** (<= 1 μM is) | 1000 to 10000 | < 60 |  |
